Measured values reported in ChEMBL document CHEMBL1201862, “PubChem BioAssay data set” (2004).
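1) Cells in 96-well plates. 2) Compound, 48 h, 5 concentrations. 3) Linear interpolation between surrounding doses. 4) Unreached endpoint = highest concentration. Abbreviation: GI50, concentration required for 50% inhibition of growth.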 Active and inactive are the calls of the source. No stated cut-off is given here; in the data, active = GI50 up to about 1.1 µM and inactive = higher.

Legend:
Test in all cases: growth of human tumour cells (NCI), 48 h
[1] = system: NCI/ADR-RES
[2] = system: SN12C
[3] = system: SK-MEL-28
[4] = system: A549
[5] = system: NCI-H226
[6] = system: HT-29
[7] = system: Malme-3M
[8] = system: BT-549
[9] = system: CCRF-CEM
[10] = system: UO-31
[11] = system: SF-539
[12] = system: HOP-92
[13] = system: NCI-H522
[14] = system: MCF7
[15] = system: COLO 205
[16] = system: NCI-H23
[17] = system: DU-145
[18] = system: NCI-H460
[19] = system: IGROV-1
[20] = system: MDA-MB-435
[21] = system: SW-620
[22] = system: UACC-62
[23] = system: OVCAR-5
[24] = system: ACHN
[25] = system: SR
[26] = system: UACC-257
[27] = system: EKVX
[28] = system: MDA-N
[29] = system: T47D
[30] = system: HL-60
[31] = system: MDA-MB-231
[32] = system: MOLT-4
[33] = system: TK-10
[34] = system: Hs-578T
[35] = system: OVCAR-3
[36] = system: SF-295
[37] = system: A498
[38] = system: HCT-15
[39] = system: LOX IMVI
[40] = system: HOP-62
[41] = system: SNB-19
[42] = system: KM12
[43] = system: CAKI-1
[44] = system: PC-3
[45] = system: SK-OV-3
[46] = system: SF-268
[47] = system: M14
[48] = system: HCT-116
[49] = system: U-251
[50] = system: HCC 2998
[51] = system: K562
[52] = system: SK-MEL-5
[53] = system: RPMI-8226
[54] = system: 786-0
[55] = system: SNB-75
[56] = system: OVCAR-8
[57] = system: OVCAR-4
[58] = system: SK-MEL-2
[59] = system: RXF 393

Q: Which results are given for CC(C)NC(NC(C)C)=C(S(=O)(=O)C(F)(F)C(F)(F)C(F)(F)C(F)(F)F)S(=O)(=O)C(F)(F)C(F)(F)C(F)(F)C(F)(F)F?
A: GI50 [1]: > 100 µM (inactive); GI50 [2]: > 100 µM (inactive); GI50 [3]: > 100 µM (inactive); GI50 [4]: > 100 µM (inactive); GI50 [5]: > 100 µM (inactive); GI50 [6]: > 100 µM (inactive); GI50 [7]: > 100 µM (inactive); GI50 [8]: 90.8 µM (inactive); GI50 [9]: > 100 µM (inactive); GI50 [10]: > 100 µM (inactive); GI50 [11]: > 100 µM (inactive); GI50 [12]: > 100 µM (inactive); GI50 [13]: > 100 µM (inactive); GI50 [14]: > 100 µM (inactive); GI50 [15]: > 100 µM (inactive); GI50 [16]: > 100 µM (inactive); GI50 [17]: > 100 µM (inactive); GI50 [18]: > 100 µM (inactive); GI50 [19]: > 100 µM (inactive); GI50 [20]: > 100 µM (inactive); GI50 [21]: > 100 µM (inactive); GI50 [22]: > 100 µM (inactive); GI50 [23]: > 100 µM (inactive); GI50 [24]: > 100 µM (inactive); GI50 [25]: > 100 µM (inactive); GI50 [26]: > 100 µM (inactive); GI50 [27]: > 100 µM (inactive); GI50 [28]: > 100 µM (inactive); GI50 [29]: > 100 µM (inactive); GI50 [30]: > 100 µM (inactive); GI50 [31]: > 100 µM (inactive); GI50 [32]: > 100 µM (inactive); GI50 [33]: > 100 µM (inactive); GI50 [34]: > 100 µM (inactive); GI50 [35]: > 100 µM (inactive); GI50 [36]: > 100 µM (inactive); GI50 [37]: > 100 µM (inactive); GI50 [38]: > 100 µM; GI50 [39]: > 100 µM (inactive); GI50 [40]: > 100 µM (inactive); GI50 [41]: > 100 µM (inactive); GI50 [42]: > 100 µM (inactive); GI50 [43]: > 100 µM (inactive); GI50 [44]: > 100 µM (inactive); GI50 [45]: > 100 µM (inactive); GI50 [46]: > 100 µM (inactive); GI50 [47]: > 100 µM (inactive); GI50 [48]: > 100 µM (inactive); GI50 [49]: > 100 µM (inactive); GI50 [50]: > 100 µM (inactive); GI50 [51]: > 100 µM (inactive); GI50 [52]: > 100 µM (inactive); GI50 [53]: > 100 µM (inactive); GI50 [54]: > 100 µM (inactive); GI50 [55]: > 100 µM (inactive); GI50 [56]: > 100 µM (inactive); GI50 [57]: > 100 µM (inactive); GI50 [58]: > 100 µM (inactive)

Q: For COc1ccc(C(=O)O[C@H]2CC[C@@]3(C)[C@@H]4CC[C@H]5[C@]6(O)C[C@H](O)[C@@]7(O)[C@@H](CN8C[C@@H](C)CC[C@H]8[C@@]7(C)O)[C@]6(O)C[C@@]53OC24O)cc1OC [VERATRIDINE], which GI50 [1] is on record?
A: > 100 µM (inactive)

Q: What about the GI50 [2] of the same compound?
A: > 100 µM (inactive)

Q: And the GI50 [3]?
A: > 100 µM (inactive)

Q: And the GI50 [4]?
A: > 100 µM (inactive)

Q: What about the GI50 [5] of the same compound?
A: 44.3 µM (inactive)

Q: And the GI50 [6]?
A: 60.1 µM (inactive)

Q: And the GI50 [7]?
A: > 100 µM (inactive)

Q: What about the GI50 [8] of the same compound?
A: > 100 µM (inactive)

Q: What about the GI50 [10] of the same compound?
A: > 100 µM (inactive)

Q: And the GI50 [11]?
A: 82 µM (inactive)

Q: What about the GI50 [12] of the same compound?
A: > 100 µM (inactive)

Q: What about the GI50 [13] of the same compound?
A: > 100 µM (inactive)

Q: And the GI50 [14]?
A: > 100 µM (inactive)

Q: And the GI50 [15]?
A: > 100 µM (inactive)

Q: And the GI50 [16]?
A: > 100 µM (inactive)

Q: What about the GI50 [17] of the same compound?
A: > 100 µM (inactive)

Q: What about the GI50 [18] of the same compound?
A: 75.2 µM (inactive)

Q: And the GI50 [19]?
A: > 100 µM (inactive)

Q: And the GI50 [20]?
A: > 100 µM (inactive)

Q: And the GI50 [21]?
A: > 100 µM (inactive)

Q: What about the GI50 [22] of the same compound?
A: > 100 µM (inactive)

Q: And the GI50 [23]?
A: > 100 µM (inactive)

Q: And the GI50 [24]?
A: > 100 µM (inactive)

Q: What about the GI50 [25] of the same compound?
A: 74.8 µM (inactive)

Q: What about the GI50 [26] of the same compound?
A: 71.3 µM (inactive)

Q: What about the GI50 [27] of the same compound?
A: > 100 µM (inactive)

Q: What about the GI50 [28] of the same compound?
A: > 100 µM (inactive)

Q: What about the GI50 [29] of the same compound?
A: > 100 µM (inactive)

Q: What about the GI50 [31] of the same compound?
A: > 100 µM (inactive)

Q: What about the GI50 [32] of the same compound?
A: 95.5 µM (inactive)

Q: And the GI50 [33]?
A: > 100 µM (inactive)

Q: And the GI50 [34]?
A: > 100 µM (inactive)

Q: What about the GI50 [35] of the same compound?
A: > 100 µM (inactive)

Q: What about the GI50 [36] of the same compound?
A: > 100 µM (inactive)

Q: And the GI50 [37]?
A: > 100 µM (inactive)

Q: What about the GI50 [38] of the same compound?
A: > 100 µM

Q: What about the GI50 [39] of the same compound?
A: > 100 µM (inactive)

Q: What about the GI50 [40] of the same compound?
A: > 100 µM (inactive)

Q: And the GI50 [41]?
A: > 100 µM (inactive)

Q: And the GI50 [42]?
A: > 100 µM (inactive)

Q: What about the GI50 [43] of the same compound?
A: > 100 µM (inactive)

Q: What about the GI50 [44] of the same compound?
A: > 100 µM (inactive)

Q: And the GI50 [45]?
A: > 100 µM (inactive)

Q: And the GI50 [46]?
A: > 100 µM (inactive)

Q: And the GI50 [47]?
A: > 100 µM (inactive)

Q: What about the GI50 [48] of the same compound?
A: > 100 µM (inactive)

Q: What about the GI50 [49] of the same compound?
A: > 100 µM (inactive)

Q: What about the GI50 [50] of the same compound?
A: 46.1 µM (inactive)

Q: What about the GI50 [51] of the same compound?
A: > 100 µM (inactive)

Q: And the GI50 [52]?
A: > 100 µM (inactive)

Q: And the GI50 [59]?
A: 57.5 µM (inactive)

Q: And the GI50 [53]?
A: 80.4 µM (inactive)

Q: And the GI50 [54]?
A: > 100 µM (inactive)

Q: What about the GI50 [55] of the same compound?
A: 23.4 µM (inactive)

Q: And the GI50 [56]?
A: > 100 µM (inactive)

Q: What about the GI50 [57] of the same compound?
A: > 100 µM (inactive)

Q: And the GI50 [58]?
A: > 100 µM (inactive)
